Results as given in ChEMBL document CHEMBL1201862, “PubChem BioAssay data set” (2004).
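Briefly, cells in 96-well plates were exposed to five compound concentrations for 48 h, and endpoints were estimated by linear interpolation. The concentration for 50% growth inhibition is given as GI50.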 Active and inactive are the calls of the source. Rule as the data show it: active = GI50 up to about 1.1 µM and inactive = higher.

Experiments:
Test in all cases: growth of human tumour cells (NCI), 48 h
DU-145 = test system: DU-145
SN12C = test system: SN12C
IGROV-1 = test system: IGROV-1
SNB-19 = test system: SNB-19
KM12 = test system: KM12
HL-60 = test system: HL-60
SNB-75 = test system: SNB-75
Malme-3M = test system: Malme-3M
M14 = test system: M14
MDA-MB-231 = test system: MDA-MB-231
COLO 205 = test system: COLO 205
HCT-15 = test system: HCT-15
MOLT-4 = test system: MOLT-4
EKVX = test system: EKVX
NCI-H226 = test system: NCI-H226
CAKI-1 = test system: CAKI-1
A498 = test system: A498
OVCAR-5 = test system: OVCAR-5
SF-268 = test system: SF-268
SR = test system: SR

SMILES | GI50 (DU-145) | GI50 (SN12C) | GI50 (IGROV-1) | GI50 (SNB-19) | GI50 (KM12) | GI50 (HL-60) | GI50 (SNB-75) | GI50 (Malme-3M) | GI50 (M14) | GI50 (MDA-MB-231) | GI50 (COLO 205) | GI50 (HCT-15) | GI50 (MOLT-4) | GI50 (EKVX) | GI50 (NCI-H226) | GI50 (CAKI-1) | GI50 (A498) | GI50 (OVCAR-5) | GI50 (SF-268) | GI50 (SR)
O=C(Nc1cnc(O)nc1O)C(Cl)Cl | > 100 µM (inactive) | > 100 µM (inactive) | > 100 µM (inactive) | > 100 µM (inactive) | > 100 µM (inactive) | > 100 µM (inactive) | > 100 µM (inactive) | > 100 µM (inactive) | > 100 µM (inactive) | > 100 µM (inactive) | > 100 µM (inactive) | > 100 µM | > 100 µM (inactive) | > 100 µM (inactive) | > 100 µM (inactive) | > 100 µM (inactive) | > 100 µM (inactive) |  |  | 
CCN(CC)CCCNc1nc(=O)[nH]c(C)c1C(=O)Nc1c2ccccc2nc2ccccc12 | 12.8 µM (inactive) | 15.4 µM (inactive) | 6.85 µM (inactive) | 8.71 µM (inactive) | 3.56 µM (inactive) | 5.01 µM (inactive) | 10.1 µM (inactive) | 7.87 µM (inactive) | 15.5 µM (inactive) | 12.9 µM (inactive) | 8.79 µM (inactive) | 4.8 µM | 4.28 µM (inactive) | 12.2 µM (inactive) | 14.9 µM (inactive) | 7.28 µM (inactive) | 5.22 µM (inactive) | 36.2 µM (inactive) |  | 
O=C(c1cccs1)N1CCCN(C(=O)c2cccs2)C1=S | > 100 µM (inactive) | > 100 µM (inactive) | > 100 µM (inactive) | > 100 µM (inactive) | > 100 µM (inactive) | > 100 µM (inactive) |  | > 100 µM (inactive) | > 100 µM (inactive) | > 100 µM (inactive) | > 100 µM (inactive) | > 100 µM | > 100 µM (inactive) | 52.2 µM (inactive) | > 100 µM (inactive) | > 100 µM (inactive) | > 100 µM (inactive) | > 100 µM (inactive) | > 100 µM (inactive) | 
COC(=O)/C=C1\CCC(C)(C(=O)NS(=O)(=O)c2ccc(C)cc2)C1(C)C (configuration not stated) | > 100 µM (inactive) | > 100 µM (inactive) | > 100 µM (inactive) | > 100 µM (inactive) | > 100 µM (inactive) | > 100 µM (inactive) |  | > 100 µM (inactive) | > 100 µM (inactive) | > 100 µM (inactive) | > 100 µM (inactive) | > 100 µM | > 100 µM (inactive) | > 100 µM (inactive) | > 100 µM (inactive) | > 100 µM (inactive) | > 100 µM (inactive) | > 100 µM (inactive) | > 100 µM (inactive) | 
O=Cc1ccc2c(c1-c1c(C=O)ccc3c1OCO3)OCO2 |  | > 100 µM (inactive) | > 100 µM (inactive) | > 100 µM (inactive) | > 100 µM (inactive) | > 100 µM (inactive) | > 100 µM (inactive) | > 100 µM (inactive) | > 100 µM (inactive) |  | > 100 µM (inactive) | > 100 µM | > 100 µM (inactive) | > 100 µM (inactive) | > 100 µM (inactive) | > 100 µM (inactive) | > 100 µM (inactive) | > 100 µM (inactive) | > 100 µM (inactive) | > 100 µM (inactive)
NC(=O)N1N=C2c3ccccc3OC[C@H]2[C@@H]1c1ccccc1 |  | 23.9 µM (inactive) | 18.8 µM (inactive) | 31.6 µM (inactive) | 9.31 µM (inactive) | 22.6 µM (inactive) | 16.6 µM (inactive) | 21.1 µM (inactive) | 2.07 µM (inactive) |  | 18.2 µM (inactive) | 5.55 µM | 29.5 µM (inactive) | 35.2 µM (inactive) | 22.5 µM (inactive) | 35.6 µM (inactive) | 16.4 µM (inactive) | 20.1 µM (inactive) | 9.86 µM (inactive) | 6.31 µM (inactive)
Cc1ccc(S(=O)(=O)NC(=O)NCC(N)=O)cc1 | > 100 µM (inactive) | > 100 µM (inactive) | > 100 µM (inactive) | > 100 µM (inactive) | > 100 µM (inactive) | > 100 µM (inactive) | > 100 µM (inactive) | > 100 µM (inactive) | > 100 µM (inactive) | > 100 µM (inactive) | > 100 µM (inactive) | > 100 µM | > 100 µM (inactive) |  |  |  |  | > 100 µM (inactive) | > 100 µM (inactive) | 
O=C1C2C(C(=O)N1O)N(Cc1ccccc1)C(=O)N2Cc1ccccc1 (configuration not stated) |  | > 100 µM (inactive) | > 100 µM (inactive) | > 100 µM (inactive) | > 100 µM (inactive) | > 100 µM (inactive) | > 100 µM (inactive) | > 100 µM (inactive) | > 100 µM (inactive) |  | > 100 µM (inactive) | > 100 µM | > 100 µM (inactive) | > 100 µM (inactive) | > 100 µM (inactive) | > 100 µM (inactive) | > 100 µM (inactive) | > 100 µM (inactive) | > 100 µM (inactive) | > 100 µM (inactive)
O=c1[nH]ncc2[nH]c3c4ccccc4ccc3c12 | > 100 µM (inactive) |  |  |  | 37.4 µM (inactive) | 80.7 µM (inactive) |  | 19.6 µM (inactive) | 94.6 µM (inactive) |  | 24.2 µM (inactive) | 12.4 µM | 35.6 µM (inactive) | 10.8 µM (inactive) |  | 48.2 µM (inactive) |  | 39.9 µM (inactive) | 37.2 µM (inactive) | 31.3 µM (inactive)
Nc1nc2ncc(SCc3ccc(C(=O)NC(CCC(=O)O)C(=O)O)cc3)cc2c(=O)[nH]1 (configuration not stated) | > 100 µM (inactive) | > 100 µM (inactive) | > 100 µM (inactive) | > 100 µM (inactive) | > 100 µM (inactive) | > 100 µM (inactive) |  | > 100 µM (inactive) | > 100 µM (inactive) |  | > 100 µM (inactive) | > 100 µM | > 100 µM (inactive) | > 100 µM (inactive) | > 100 µM (inactive) | > 100 µM (inactive) | > 100 µM (inactive) | > 100 µM (inactive) | > 100 µM (inactive) | > 100 µM (inactive)
COc1ccc2c(c1)CCc1c(-c3n[nH]c4c3CCc3cc(OC)ccc3-4)n[nH]c1-2 |  | 57.4 µM (inactive) | 48.6 µM (inactive) | 76.9 µM (inactive) | 33.9 µM (inactive) | 27.5 µM (inactive) | 23.3 µM (inactive) | 37.9 µM (inactive) | 25.9 µM (inactive) |  | 50.2 µM (inactive) | 35.1 µM | 58.6 µM (inactive) | 31.3 µM (inactive) | 28.8 µM (inactive) | 24.4 µM (inactive) | 27.6 µM (inactive) | > 100 µM (inactive) | 37.1 µM (inactive) | 38.1 µM (inactive)
CN(CCCNC(=O)c1cn(C)c2c1ccc1ccccc12)CCCNC(=O)c1cn(C)c2c1ccc1ccccc12 | 1.55 µM (inactive) | 1.41 µM (inactive) | 1.11 µM (active) | 2.33 µM (inactive) | 1.61 µM (inactive) |  |  |  | 1.58 µM (inactive) |  | 1.75 µM (inactive) | 1.73 µM |  | 1.7 µM (inactive) | 1.66 µM (inactive) | 1.53 µM (inactive) | 14.7 µM (inactive) |  | 1.49 µM (inactive) | 
O=C(OCc1ccccc1)N1CCN(C(=O)OCc2ccccc2)CCN(C(=O)OCc2ccccc2)CCN(C(=O)OCc2ccccc2)CCN(C(=O)OCc2ccccc2)CC1 | > 100 µM (inactive) | > 100 µM (inactive) |  | > 100 µM (inactive) | > 100 µM (inactive) |  | 30.9 µM (inactive) | 24.4 µM (inactive) | 35.3 µM (inactive) | 39.5 µM (inactive) | 31.1 µM (inactive) | 46.8 µM | > 100 µM (inactive) | > 100 µM (inactive) | > 100 µM (inactive) | > 100 µM (inactive) | > 100 µM (inactive) | > 100 µM (inactive) |  | 
N#CCCCCCOCCOCCOCCOCCOCCCCCC#N |  | > 100 µM (inactive) | > 100 µM (inactive) | > 100 µM (inactive) | > 100 µM (inactive) | > 100 µM (inactive) | > 100 µM (inactive) | > 100 µM (inactive) | > 100 µM (inactive) |  | > 100 µM (inactive) | > 100 µM | > 100 µM (inactive) | > 100 µM (inactive) | > 100 µM (inactive) | > 100 µM (inactive) | > 100 µM (inactive) | > 100 µM (inactive) | > 100 µM (inactive) | > 100 µM (inactive)
O=C1CN(c2cccc(C(F)(F)F)c2)C(=O)CN1CCN1CC(=O)N(c2cccc(C(F)(F)F)c2)CC1=O |  | > 100 µM (inactive) | > 100 µM (inactive) | > 100 µM (inactive) | > 100 µM (inactive) | > 100 µM (inactive) | > 100 µM (inactive) |  | > 100 µM (inactive) | > 100 µM (inactive) | > 100 µM (inactive) | > 100 µM | > 100 µM (inactive) | > 100 µM (inactive) |  |  |  | > 100 µM (inactive) | > 100 µM (inactive) | > 100 µM (inactive)
Cc1ccc([S+]([O-])c2cccs2)cc1 (configuration not stated) | > 100 µM (inactive) | > 100 µM (inactive) |  | > 100 µM (inactive) | > 100 µM (inactive) | > 100 µM (inactive) |  | > 100 µM (inactive) | > 100 µM (inactive) |  | > 100 µM (inactive) | > 100 µM | > 100 µM (inactive) | > 100 µM (inactive) | > 100 µM (inactive) |  | 38.1 µM (inactive) | > 100 µM (inactive) | > 100 µM (inactive) | > 100 µM (inactive)
